Results on ten molecules are retold here after ChEMBL document CHEMBL4823265, “Benzophenones from Betula alnoides with Antiausterity Activities against the PANC-1 Human Pancreatic Cancer Cell Line” (J Nat Prod, 2021).

Data set [1] deals with PANC-1. Kind of data set: Cytotoxicity against human PANC-1 cells assessed as reduction in cell viability incubated for 24 hrs in nutrient-rich DMEM medium by CCK8 assay. It counts as cell-based. To be noted: panc-1, 24 h.
Data set [2] has as its system PANC-1. Kind of data set: Anti-austerity activity against human PANC-1 cells assessed as cell killing incubated for 24 hrs in nutrient deprived medium by CCK8 assay. It counts as functional.
In data set [3] the test system is PANC-1. Kind of data set: Cytotoxicity against human PANC-1 cells assessed as membrane blebs by measuring red fluorescence emission incubated for 24 hrs in nutrient deprived medium by ethidium bromide/acridine orange double staining based fluorescence microscopic analysis. Particulars: dose 5-10 µM. It counts as functional, cell-based.
Data set [4] concerns PANC-1. Briefly: Inhibition of colony formation in human PANC-1 cells at 20 uM treated for 24 hrs followed by replacement with fresh DMEM medium and measured after 10 days by crystal violet staining based assay relative to control. It counts as functional.
For data set [5], the system named is PANC-1. Kind of data set: Cytotoxicity against human PANC-1 cells assessed as cell death at 10 uM incubated in nutrient deprived medium measured every 15 mins for 23 hrs by time-lapse live imaging based analysis. It counts as functional.
Data set [6] relates to PANC-1. Kind of data set: Inhibition of colony formation in human PANC-1 cells treated for 24 hrs followed by replacement with fresh DMEM medium and measured after 10 days by crystal violet staining based assay. To be noted: dose 10-40 µM. It counts as functional, cell-based.
In data set [7] the test system is PANC-1. Kind of data set: Cytotoxicity against human PANC-1 cells assessed as membrane blebbing at 10 uM incubated in nutrient deprived medium measured every 15 mins for 13 hrs by time-lapse live imaging based analysis. It counts as functional, cell-based.
Data set [8] deals with PANC-1. Kind of data set: Inhibition of colony formation in human PANC-1 cells at 40 uM treated for 24 hrs followed by replacement with fresh DMEM medium and measured after 10 days by crystal violet staining based assay relative to control. Format: functional.
Data set [9] has as its system PANC-1. Briefly: Cytotoxicity against human PANC-1 cells assessed as cell shrinkage at 5 to 10 uM incubated in nutrient deprived medium measured every 15 mins for 8 hrs by time-lapse live imaging based analysis. Format: functional. Particulars: dose 5-10 µM.
For data set [10], the system named is PANC-1. Kind of data set: Cytotoxicity against human PANC-1 cells assessed as swollen cell morphology by measuring red fluorescence emission incubated for 24 hrs in nutrient deprived medium by ethidium bromide/acridine orange double staining based fluorescence microscopic analysis. To be noted: dose 5-10 µM. Format: functional.
Data set [11] has as its system PANC-1. Kind of data set: Cytotoxicity against human PANC-1 cells assessed as ruptured cell membrane by measuring red fluorescence emission incubated for 24 hrs in nutrient deprived medium by ethidium bromide/acridine orange double staining based fluorescence microscopic analysis. Particulars: dose 5-10 µM. Format: functional.
In data set [12] the test system is PANC-1. Kind of data set: Cytotoxicity against human PANC-1 cells assessed as inhibition of cell mobility at 5 to 10 uM incubated in nutrient deprived medium measured every 15 mins for 4 hrs by time-lapse live imaging based analysis. It counts as functional. To be noted: dose 5-10 µM.
The subject of data set [13] is PANC-1. Briefly: Inhibition of colony formation in human PANC-1 cells at 10 to 40 uM treated for 24 hrs followed by replacement with fresh DMEM medium and measured after 10 days by crystal violet staining based assay relative to control. It counts as functional. Particulars: dose 10-40 µM.

Activity calls are given as the source filed them. No cut-off for these calls is given here.

Take `O=C(c1ccccc1O)c1cc(O)ccc1O`: the Activity entry in the data set with PANC-1 [1] was “Non-Toxic”. The PC50 in the data set with PANC-1 [2] came to 42.5 µM.
With `CC(C)(O)[C@@H]1CC[C@@]2(C)C[C@@H]1c1c(O)cc(O)c(C(=O)c3ccccc3)c1O2`, the Activity result was “Dose-Dependent Effect” in the data set with PANC-1 [3], “Non-Toxic” in the data set on PANC-1 [1], “Dose-Dependent Effect” in the data set on PANC-1 [10] and “Dose-Dependent Effect” in the data set with PANC-1 [11]. This molecule yielded an inhibition at 20 µM in the data set on PANC-1 [4] of 45%. The result in the data set on PANC-1 [5], in the data set on PANC-1 [7], in the data set on PANC-1 [9] and in the data set on PANC-1 [12] was Active. Besides, in the data set with PANC-1 [6], the inhibition result was “Dose-Dependent Effect”. In addition, the PC50 in the data set on PANC-1 [2] turned out to be 4.9 µM. Also, in the data set on PANC-1 [8], at 40 µM the inhibition was 64%.
`COc1cc(C[C@H]2C(=O)OC[C@@H]2Cc2ccc(OC)c(OC)c2)ccc1O` [ARCTIGENIN]: in the data set on PANC-1 [2], the PC50 worked out at 0.7 µM.
Take `CC(C)=CCC/C(C)=C/CC/C(C)=C/Cc1c(O)cc(O)c(C(=O)c2ccccc2)c1O`: the Activity entry in the data set with PANC-1 [1] is “Non-Toxic”. Further, in the data set on PANC-1 [2], the PC50 came to 8.3 µM.
For `CC(C)=CCC/C(C)=C/CC[C@@](C)(O)CCc1c(O)cc(O)c(C(=O)c2ccccc2)c1O`, the Activity entry was “Dose-Dependent Effect” in the data set with PANC-1 [3], “Non-Toxic” in the data set on PANC-1 [1], “Dose-Dependent Effect” in the data set with PANC-1 [10] and “Dose-Dependent Effect” in the data set with PANC-1 [11]. In addition, the inhibition result in the data set on PANC-1 [6] is “Dose-Dependent Effect”. In addition, the “inhibition (INH)” value in the data set on PANC-1 [13] is more than 60%. For the same molecule, the PC50 with PANC-1 [2] amounted to 5.9 µM.
Regarding `CC(C)=CCC/C(C)=C/CC[C@@]1(C)Oc2c(c(O)cc(O)c2C(=O)c2ccccc2)C[C@H]1O`, the Activity entry in the data set on PANC-1 [1] is listed as “Non-Toxic”. Further, the PC50 with PANC-1 [2] came out at 6.7 µM.
For `CC(C)=CCC/C(C)=C/CC[C@]1(C)CCc2c(O)cc(O)c(C(=O)c3ccccc3)c2O1` the same measures were “Non-Toxic” and 12.3 µM.
For `COc1cc2c(=O)c3ccccc3oc2cc1O` the same measures were “Non-Toxic” and more than 100 µM.
For `COc1cccc2c(=O)c3c(O)cccc3oc12` the same measures were “Non-Toxic” and 61 µM.
As for `O=c1c2ccc(O)cc2oc2ccc(O)cc12`, the Activity result in the data set on PANC-1 [1] is reported as “Non-Toxic”. Moreover, the PC50 in the data set on PANC-1 [2] came to 45.2 µM.
